Test results from patent US20040048814A1, “Sustained release composition contraining clarithromycin” (priority 2000, published 2004).
Like-named read-outs stand apart in the source and are kept apart here.

What was measured:
[1] = cited from earlier work
[2] = cited from earlier work; remark: listed apart in the source
[3] = In vitro dissolution test, paddle apparatus, pH 5.0 phosphate buffer; format: physicochemical; conditions: pH 5.0, 100 rpm, 900 ml
Description: The dissolution test is usually the most appropriate analytical tool to assess the quality of the oral formulations and especially of sustained release oral formulations.

For CC[C@H]1OC(=O)[C@H](C)[C@@H](O[C@H]2C[C@@](C)(OC)[C@@H](O)[C@H](C)O2)[C@H](C)[C@@H](O[C@@H]2O[C@H](C)C[C@H](N(C)C)[C@H]2O)[C@](C)(OC)C[C@@H](C)C(=O)[C@H](C)[C@@H](O)[C@]1(C)O [clarithromycin, Clarithromycin], the “increase of bioavailability by food intake (mean)” value ([1]; food intake immediately before administration) is given as 25%, the “time to achieve peak blood concentrations” value ([1]; oral administration) is given as “about 2 hours” and the “availability after an oral dose” value ([1]; oral dose of 250 mg) is given as about 55%. For the same compound, the water solubility ([2]; pH below 5) was “good and quite constant”, the solubility ([2]; pH greater than 5) was “decreases dramatically” and the solubility ([2]; pH=8) was “quasi nil”. For the same compound, the “% of dissolved clarithromycin” value ([3]; after 5 minutes, amount of coating 12% of the weight of the core) was “about 40%”, the “% of dissolved clarithromycin” value ([3]; after 5 minutes, amount of coating 14% of the weight of the core) was “about 20%” and the “% of dissolved clarithromycin” value ([3]; after about 5 minutes, amount of coating 10% of the weight of the core) was “about 80%”.
